Test results from ChEMBL document CHEMBL1201862, “PubChem BioAssay data set” (2004).
Calls of active or inactive are those of the source.

Tests used:
Aminopeptidase N = target: T1, Aminopeptidase N (Plasmodium falciparum FcB1/Columbia, UniProt O96935); experiment: P. falciparum M1AAP inhibitors, biochemical, fluorogenic H-Leu-NHMec substrate, 1536-well (AID 1445); set-up: species or system Plasmodium falciparum 3D7, 3D7
T1 sequence (O96935 whole entry): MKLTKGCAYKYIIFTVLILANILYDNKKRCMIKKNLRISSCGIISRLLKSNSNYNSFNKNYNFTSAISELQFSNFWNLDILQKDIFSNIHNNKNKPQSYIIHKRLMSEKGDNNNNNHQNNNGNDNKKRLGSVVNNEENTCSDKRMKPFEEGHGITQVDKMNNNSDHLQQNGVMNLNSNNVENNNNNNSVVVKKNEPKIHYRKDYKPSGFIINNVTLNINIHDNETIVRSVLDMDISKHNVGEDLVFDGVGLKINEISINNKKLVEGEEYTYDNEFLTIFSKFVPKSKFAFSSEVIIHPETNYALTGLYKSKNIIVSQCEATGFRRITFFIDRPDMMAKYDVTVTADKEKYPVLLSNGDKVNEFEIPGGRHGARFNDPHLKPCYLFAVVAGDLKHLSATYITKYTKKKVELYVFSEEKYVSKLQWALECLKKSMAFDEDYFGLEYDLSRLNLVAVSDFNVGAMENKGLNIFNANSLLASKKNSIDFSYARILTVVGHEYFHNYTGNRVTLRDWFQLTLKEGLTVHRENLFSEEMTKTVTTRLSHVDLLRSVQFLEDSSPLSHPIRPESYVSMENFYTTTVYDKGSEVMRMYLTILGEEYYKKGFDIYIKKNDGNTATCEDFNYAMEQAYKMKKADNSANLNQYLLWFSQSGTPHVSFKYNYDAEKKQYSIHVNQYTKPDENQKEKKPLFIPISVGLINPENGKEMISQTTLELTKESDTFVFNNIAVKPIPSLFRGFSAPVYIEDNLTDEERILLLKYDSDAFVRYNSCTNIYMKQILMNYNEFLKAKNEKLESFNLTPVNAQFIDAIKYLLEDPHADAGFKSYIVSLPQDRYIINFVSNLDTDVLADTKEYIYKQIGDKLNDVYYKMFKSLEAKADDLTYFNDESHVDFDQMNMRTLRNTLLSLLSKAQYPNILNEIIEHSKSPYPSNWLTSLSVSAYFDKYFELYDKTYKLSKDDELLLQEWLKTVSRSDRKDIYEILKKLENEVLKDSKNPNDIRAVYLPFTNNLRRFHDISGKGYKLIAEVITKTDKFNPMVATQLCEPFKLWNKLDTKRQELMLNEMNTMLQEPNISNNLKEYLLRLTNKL

[1] = CRF-BP/CRF-R2 complex antagonists, dose response, cell-based, uHTS hits, 384-well (AID 651639); type: functional, Homo sapiens; settings: read-out: IC50_Mean
[2] = target: T2, Corticotropin-releasing factor receptor 2/Corticotropin-releasing factor-binding protein (Homo sapiens, UniProt P24387+Q13324); experiment: activators of CRF receptor 2 with binding protein – uHTS hits, confirmation (AID 602473); type: functional; settings: read-out: EC50_Mean
T2 sequence (Q13324 whole entry): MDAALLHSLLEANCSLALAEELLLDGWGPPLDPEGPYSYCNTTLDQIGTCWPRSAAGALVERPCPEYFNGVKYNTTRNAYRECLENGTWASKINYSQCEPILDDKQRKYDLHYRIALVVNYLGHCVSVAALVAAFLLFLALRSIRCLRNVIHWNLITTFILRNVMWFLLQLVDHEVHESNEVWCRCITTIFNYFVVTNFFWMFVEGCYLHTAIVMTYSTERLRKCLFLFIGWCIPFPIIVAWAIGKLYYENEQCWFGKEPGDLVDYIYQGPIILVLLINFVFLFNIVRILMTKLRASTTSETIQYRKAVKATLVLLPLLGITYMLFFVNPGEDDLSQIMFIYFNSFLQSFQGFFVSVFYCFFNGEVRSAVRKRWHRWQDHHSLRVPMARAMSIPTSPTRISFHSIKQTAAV
T2 sequence (P24387 whole entry): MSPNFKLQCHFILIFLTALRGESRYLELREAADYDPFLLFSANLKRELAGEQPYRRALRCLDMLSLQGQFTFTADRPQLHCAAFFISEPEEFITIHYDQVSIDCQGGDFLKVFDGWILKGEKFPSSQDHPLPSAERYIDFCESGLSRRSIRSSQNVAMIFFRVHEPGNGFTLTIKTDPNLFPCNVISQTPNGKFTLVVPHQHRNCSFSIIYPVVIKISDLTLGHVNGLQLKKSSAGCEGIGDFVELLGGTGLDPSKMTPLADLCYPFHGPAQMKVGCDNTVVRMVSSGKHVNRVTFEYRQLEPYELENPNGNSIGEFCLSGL

[3] = target: T2, Corticotropin-releasing factor receptor 2/Corticotropin-releasing factor-binding protein; experiment: Dose Response confirmation of uHTS hits for small molecule antagonists of the CRF-binding protein and CRF-R2 receptor complex.; type: functional; settings: read-out: IC50_Mean
SN12K1 = experiment: cells; type: functional; settings: Homo sapiens
P388/ADR = experiment: cells; type: functional; settings: Mus musculus
P388 = experiment: cells; type: functional; settings: Mus musculus
[4] = target: Voltage-dependent T-type calcium channel subunit alpha-1H (Homo sapiens, UniProt O95180); type: functional;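 note: channel activity triggered by adding a high calcium stimulation buffer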
Cytochrome P450 2C9 = Cytochrome P450 2C9 (Homo sapiens, UniProt P11712)
Cytochrome P450 1A2 = target: T3, Cytochrome P450 1A2 (Homo sapiens, UniProt P05177);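 note: PubChem cytochrome P450 panel assay, CYP1A2 panel member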
T3 sequence (P05177 whole entry): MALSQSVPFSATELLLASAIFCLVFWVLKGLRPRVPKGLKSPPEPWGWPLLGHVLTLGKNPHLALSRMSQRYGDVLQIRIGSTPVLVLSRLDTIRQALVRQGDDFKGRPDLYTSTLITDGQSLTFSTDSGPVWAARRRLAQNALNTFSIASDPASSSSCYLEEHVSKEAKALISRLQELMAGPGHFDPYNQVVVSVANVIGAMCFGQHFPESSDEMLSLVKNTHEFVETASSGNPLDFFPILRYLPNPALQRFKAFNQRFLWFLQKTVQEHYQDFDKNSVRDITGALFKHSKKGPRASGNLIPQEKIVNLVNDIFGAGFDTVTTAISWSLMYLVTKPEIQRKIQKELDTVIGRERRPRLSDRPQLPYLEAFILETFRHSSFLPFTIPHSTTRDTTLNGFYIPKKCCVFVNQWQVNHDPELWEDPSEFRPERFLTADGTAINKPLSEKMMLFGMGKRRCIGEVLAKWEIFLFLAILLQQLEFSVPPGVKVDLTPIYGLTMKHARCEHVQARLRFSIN

[5] = target: T4, Heat shock factor protein 1 (Mus musculus, UniProt P38532); experiment: inhibition of MG132-induced HSE-luciferase signal, confirmation, cell-based, NIH3T3, luminescence, dose retest (AID 2382); type: functional;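 note: NIH3T3 fibroblasts with HSF1-driven luciferase reporter stressed by proteasome inhibitor MG132; luminescence from HSF1-driven luciferase expression after 8 hours of MG132 stress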
T4 sequence (P38532 whole entry): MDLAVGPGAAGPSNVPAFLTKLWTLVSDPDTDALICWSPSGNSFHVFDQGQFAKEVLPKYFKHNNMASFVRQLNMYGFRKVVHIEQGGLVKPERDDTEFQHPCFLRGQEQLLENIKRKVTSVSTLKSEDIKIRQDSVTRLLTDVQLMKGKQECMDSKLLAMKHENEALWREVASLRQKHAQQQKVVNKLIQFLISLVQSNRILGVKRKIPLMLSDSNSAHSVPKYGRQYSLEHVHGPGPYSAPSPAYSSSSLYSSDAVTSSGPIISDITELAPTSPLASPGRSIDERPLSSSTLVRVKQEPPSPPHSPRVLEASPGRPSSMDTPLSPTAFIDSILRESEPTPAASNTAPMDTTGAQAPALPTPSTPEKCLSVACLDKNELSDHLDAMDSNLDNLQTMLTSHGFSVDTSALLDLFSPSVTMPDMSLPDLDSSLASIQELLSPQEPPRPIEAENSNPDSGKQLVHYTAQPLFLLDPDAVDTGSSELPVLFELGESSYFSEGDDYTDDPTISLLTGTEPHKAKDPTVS

[6] = HEp-2 cell cytotoxicity, dose response, cytotoxicity control for RSV inhibitor project, HTS (AID 2410); type: functional; settings: human respiratory syncytial virus
Genome polyprotein = Genome polyprotein (dengue virus type 2, UniProt P29990); experiment: Dengue-2 NS5 methyltransferase inhibitors, primary screen, biochemical, confirmation dose response (AID 588689); type: functional
[7] = target: Glucose-6-phosphate 1-dehydrogenase (Homo sapiens, UniProt P11413); experiment: human G6PD enzyme inhibitors, dose response, selectivity assay for P. falciparum G6PD inhibitor project, biochemical, fluorescence (AID 504792); type: functional
Large T antigen = Large T antigen (Simian virus 40, UniProt P03070); type: functional, Betapolyomavirus macacae;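 note: Confirmatory-stage PubChem screen for compounds that inhibit SV40 T antigen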
H9c2 = experiment: cells; type: functional, cell-based; settings: Rattus norvegicus, H9c2, Myocardium
[8] = A Cell Based Secondary Assay To Explore Cytotoxicity of Compounds that Sensitize Mycobacterium Tuberculosis to Beta-Lactam Antibiotics.; type: functional

Chain of Voltage-dependent T-type calcium channel subunit alpha-1H (O95180 whole entry): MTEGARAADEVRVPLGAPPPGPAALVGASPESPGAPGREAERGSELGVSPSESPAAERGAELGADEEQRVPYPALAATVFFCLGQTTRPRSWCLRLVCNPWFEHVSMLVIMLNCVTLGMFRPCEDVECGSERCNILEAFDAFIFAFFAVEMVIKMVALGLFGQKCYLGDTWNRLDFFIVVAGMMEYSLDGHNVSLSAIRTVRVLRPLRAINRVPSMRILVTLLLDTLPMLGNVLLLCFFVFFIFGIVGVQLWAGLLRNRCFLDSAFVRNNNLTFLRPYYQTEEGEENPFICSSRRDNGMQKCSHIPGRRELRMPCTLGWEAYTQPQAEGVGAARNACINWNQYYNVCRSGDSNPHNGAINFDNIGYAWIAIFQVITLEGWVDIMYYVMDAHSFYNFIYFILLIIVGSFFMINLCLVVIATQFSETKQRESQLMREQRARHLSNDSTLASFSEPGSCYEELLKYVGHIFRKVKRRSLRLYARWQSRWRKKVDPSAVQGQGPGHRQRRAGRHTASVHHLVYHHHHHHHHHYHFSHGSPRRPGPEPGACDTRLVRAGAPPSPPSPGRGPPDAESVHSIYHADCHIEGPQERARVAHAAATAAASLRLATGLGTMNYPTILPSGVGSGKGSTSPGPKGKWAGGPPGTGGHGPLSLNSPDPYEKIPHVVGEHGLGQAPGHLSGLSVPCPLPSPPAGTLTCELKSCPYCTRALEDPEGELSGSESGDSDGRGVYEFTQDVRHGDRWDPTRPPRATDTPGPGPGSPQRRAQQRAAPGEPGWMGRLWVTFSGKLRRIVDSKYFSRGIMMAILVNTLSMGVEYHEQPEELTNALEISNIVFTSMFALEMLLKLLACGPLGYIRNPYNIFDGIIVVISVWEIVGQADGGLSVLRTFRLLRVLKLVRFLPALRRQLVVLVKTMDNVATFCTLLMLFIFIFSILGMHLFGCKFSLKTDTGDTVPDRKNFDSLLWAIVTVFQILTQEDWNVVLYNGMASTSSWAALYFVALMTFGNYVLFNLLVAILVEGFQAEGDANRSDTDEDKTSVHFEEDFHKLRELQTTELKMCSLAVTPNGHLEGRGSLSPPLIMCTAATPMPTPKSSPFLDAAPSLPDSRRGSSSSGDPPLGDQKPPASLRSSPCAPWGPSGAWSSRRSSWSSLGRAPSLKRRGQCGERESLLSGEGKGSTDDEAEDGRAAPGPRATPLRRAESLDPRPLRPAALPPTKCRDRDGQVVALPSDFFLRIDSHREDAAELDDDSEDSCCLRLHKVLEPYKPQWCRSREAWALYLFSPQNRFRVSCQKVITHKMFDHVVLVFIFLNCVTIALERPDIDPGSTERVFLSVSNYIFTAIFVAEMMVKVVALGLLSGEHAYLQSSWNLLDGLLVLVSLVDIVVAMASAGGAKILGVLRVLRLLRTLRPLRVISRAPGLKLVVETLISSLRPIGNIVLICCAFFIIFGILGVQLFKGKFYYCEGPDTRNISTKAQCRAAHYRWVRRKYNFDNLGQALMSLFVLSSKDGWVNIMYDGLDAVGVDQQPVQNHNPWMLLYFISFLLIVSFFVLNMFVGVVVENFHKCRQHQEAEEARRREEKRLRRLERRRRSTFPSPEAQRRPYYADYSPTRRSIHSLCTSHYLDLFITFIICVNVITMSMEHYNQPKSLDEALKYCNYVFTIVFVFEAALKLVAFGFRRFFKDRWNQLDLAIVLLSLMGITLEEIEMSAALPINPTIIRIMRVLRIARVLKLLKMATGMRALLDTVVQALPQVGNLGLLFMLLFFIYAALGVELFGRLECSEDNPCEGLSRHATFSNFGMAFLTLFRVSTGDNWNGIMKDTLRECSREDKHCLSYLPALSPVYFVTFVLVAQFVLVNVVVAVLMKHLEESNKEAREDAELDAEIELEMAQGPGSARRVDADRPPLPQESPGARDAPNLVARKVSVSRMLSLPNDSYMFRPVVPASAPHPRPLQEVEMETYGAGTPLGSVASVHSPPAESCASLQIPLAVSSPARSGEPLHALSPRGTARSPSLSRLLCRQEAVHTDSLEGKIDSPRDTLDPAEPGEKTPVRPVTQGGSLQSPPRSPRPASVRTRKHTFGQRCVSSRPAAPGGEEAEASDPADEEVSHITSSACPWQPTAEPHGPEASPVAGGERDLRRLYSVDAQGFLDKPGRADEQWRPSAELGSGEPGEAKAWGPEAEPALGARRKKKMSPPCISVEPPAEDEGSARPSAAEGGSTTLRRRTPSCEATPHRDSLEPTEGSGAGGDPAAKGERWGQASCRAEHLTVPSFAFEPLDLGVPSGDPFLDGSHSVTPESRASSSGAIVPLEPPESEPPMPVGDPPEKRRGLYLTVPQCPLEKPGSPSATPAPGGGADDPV
Chain of Cytochrome P450 2C9 (P11712 whole entry): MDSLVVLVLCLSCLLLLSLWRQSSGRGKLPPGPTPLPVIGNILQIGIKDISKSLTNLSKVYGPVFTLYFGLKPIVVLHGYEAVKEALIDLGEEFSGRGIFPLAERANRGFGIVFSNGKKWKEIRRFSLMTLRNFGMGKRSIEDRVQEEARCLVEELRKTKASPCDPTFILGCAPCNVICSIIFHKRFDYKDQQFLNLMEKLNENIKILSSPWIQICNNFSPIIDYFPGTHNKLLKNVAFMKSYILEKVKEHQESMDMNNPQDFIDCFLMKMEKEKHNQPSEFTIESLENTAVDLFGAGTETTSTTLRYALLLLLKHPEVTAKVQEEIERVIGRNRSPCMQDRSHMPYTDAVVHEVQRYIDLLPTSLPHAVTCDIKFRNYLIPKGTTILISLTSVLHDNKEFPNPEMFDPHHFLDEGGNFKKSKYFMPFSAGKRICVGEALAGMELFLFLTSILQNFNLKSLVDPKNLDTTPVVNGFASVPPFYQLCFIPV
Chain of Genome polyprotein (P29990 2492-3391 limits assumed): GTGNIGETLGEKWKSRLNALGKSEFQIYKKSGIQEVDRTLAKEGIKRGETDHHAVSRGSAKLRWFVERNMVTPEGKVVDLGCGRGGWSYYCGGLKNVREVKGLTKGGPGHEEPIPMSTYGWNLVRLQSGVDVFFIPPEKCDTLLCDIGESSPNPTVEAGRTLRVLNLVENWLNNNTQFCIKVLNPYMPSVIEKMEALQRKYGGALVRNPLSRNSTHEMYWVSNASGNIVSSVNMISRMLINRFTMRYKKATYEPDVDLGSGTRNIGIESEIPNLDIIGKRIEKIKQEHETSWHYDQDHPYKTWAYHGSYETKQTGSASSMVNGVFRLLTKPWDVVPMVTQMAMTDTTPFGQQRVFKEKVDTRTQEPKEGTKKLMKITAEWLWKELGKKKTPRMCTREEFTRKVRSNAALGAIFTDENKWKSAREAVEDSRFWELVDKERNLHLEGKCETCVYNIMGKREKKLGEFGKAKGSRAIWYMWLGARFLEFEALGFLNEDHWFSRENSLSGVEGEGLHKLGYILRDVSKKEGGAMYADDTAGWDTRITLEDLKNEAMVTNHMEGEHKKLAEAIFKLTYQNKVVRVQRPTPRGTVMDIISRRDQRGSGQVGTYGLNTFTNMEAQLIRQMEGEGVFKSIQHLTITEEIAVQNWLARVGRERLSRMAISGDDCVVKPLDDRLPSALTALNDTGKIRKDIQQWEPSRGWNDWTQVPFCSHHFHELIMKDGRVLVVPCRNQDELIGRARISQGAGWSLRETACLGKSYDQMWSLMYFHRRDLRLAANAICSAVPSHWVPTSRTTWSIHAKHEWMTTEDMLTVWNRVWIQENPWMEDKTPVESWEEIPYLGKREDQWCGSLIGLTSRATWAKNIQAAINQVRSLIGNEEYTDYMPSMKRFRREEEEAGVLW
Chain of Glucose-6-phosphate 1-dehydrogenase (P11413 whole entry): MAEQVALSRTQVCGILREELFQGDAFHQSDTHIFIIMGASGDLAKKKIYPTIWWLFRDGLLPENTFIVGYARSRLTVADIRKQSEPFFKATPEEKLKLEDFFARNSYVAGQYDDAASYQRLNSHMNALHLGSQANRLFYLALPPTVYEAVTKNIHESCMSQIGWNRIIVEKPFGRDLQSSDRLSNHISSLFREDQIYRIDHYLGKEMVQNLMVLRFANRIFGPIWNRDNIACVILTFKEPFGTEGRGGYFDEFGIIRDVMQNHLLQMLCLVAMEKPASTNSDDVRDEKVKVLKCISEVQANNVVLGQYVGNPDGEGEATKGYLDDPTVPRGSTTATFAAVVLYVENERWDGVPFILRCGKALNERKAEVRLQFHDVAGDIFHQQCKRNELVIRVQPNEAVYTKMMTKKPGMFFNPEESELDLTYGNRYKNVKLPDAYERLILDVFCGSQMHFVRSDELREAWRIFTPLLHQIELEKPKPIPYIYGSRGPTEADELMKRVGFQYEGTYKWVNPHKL
Chain of Large T antigen (P03070 whole entry): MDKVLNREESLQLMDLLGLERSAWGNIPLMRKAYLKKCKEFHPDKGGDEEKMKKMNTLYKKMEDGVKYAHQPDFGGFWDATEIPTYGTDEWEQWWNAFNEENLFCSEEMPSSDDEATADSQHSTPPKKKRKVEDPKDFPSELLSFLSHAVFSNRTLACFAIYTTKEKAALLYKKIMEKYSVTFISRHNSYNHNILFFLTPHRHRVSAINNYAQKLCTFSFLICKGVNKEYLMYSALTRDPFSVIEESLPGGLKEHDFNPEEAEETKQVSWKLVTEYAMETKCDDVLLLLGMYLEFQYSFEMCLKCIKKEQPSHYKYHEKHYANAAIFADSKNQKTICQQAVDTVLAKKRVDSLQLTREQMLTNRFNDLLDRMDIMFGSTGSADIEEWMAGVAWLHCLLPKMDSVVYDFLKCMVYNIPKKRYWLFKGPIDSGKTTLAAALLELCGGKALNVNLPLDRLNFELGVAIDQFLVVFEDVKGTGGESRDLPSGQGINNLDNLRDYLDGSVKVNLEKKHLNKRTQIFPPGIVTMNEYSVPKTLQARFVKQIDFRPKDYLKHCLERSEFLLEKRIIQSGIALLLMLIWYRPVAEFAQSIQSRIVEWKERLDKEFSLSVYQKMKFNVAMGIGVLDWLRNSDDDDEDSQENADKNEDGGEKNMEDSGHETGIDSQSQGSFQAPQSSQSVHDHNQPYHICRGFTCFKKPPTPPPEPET

## O=C(CS(=O)(=O)Cc1ccccc1)N1CCN(c2cccc(C(F)(F)F)c2)CC1
Aminopeptidase N
  IC50: 105 µM (active)

## O=C1CC(c2ccc(Cl)cc2)SC(N(c2ccccc2)c2ccccc2)=N1 (configuration not stated)
[1]
  IC50: 14.9 µM (active)
[2]
  EC50: > 53 µM (inactive)
[3]
  IC50: 13.8 µM (active)

## CCc1c(CNc2ccc(C(=O)NC(CC(=O)O)C(=O)O)cc2)ccc2nc(N)nc(N)c12 (configuration not stated)
SN12K1
  GI50: < 0.0202 µM (active)
P388/ADR
  GI50: 0.0179 µM (active)
P388
  GI50: < 0.0144 µM (active)

## Cc1cccc(-c2nc(CN3CCCC(C(=O)NC4CCCCC4)C3)c(C)o2)c1 (configuration not stated)
[4]
  EC50: 2.14 µM (active)
Cytochrome P450 2C9
  AC50: 28.2 µM (inconclusive)
Cytochrome P450 1A2
  AC50: 20 µM (inconclusive)

## CC(=O)O[C@H]1CC[C@@]2(C)[C@H](CC[C@@H]3[C@@H]2CC[C@]2(C)[C@@H](c4ccc(=O)oc4)C[C@H]4O[C@]342)C1
SN12K1
  GI50: 0.426 µM (active)
P388/ADR
  GI50: 40.9 µM (inactive)
P388
  GI50: 11 µM (inactive)

## CNC(=O)c1cccc2c(Nc3ccc(NS(C)(=O)=O)cc3OC)c3cccc(C)c3nc12
SN12K1
  GI50: < 0.01 µM (active)
P388/ADR
  GI50: 0.0488 µM (active)
P388
  GI50: < 0.01 µM (active)

## Cc1ccc(-n2nc(C)c3c2NC(=O)CSC3c2ccc3c(c2)OCO3)cc1 (configuration not stated)
[4]
  EC50: 6.71 µM (active)
[5]
  EC50: > 195 µM (not active)

## C=C1CC(OC)(C(OC)C(=O)N[C@H]2OCO[C@H]3C2O[C@H](C[C@@H](COC)OC)C(C)(C)C3OC)O[C@H](C)[C@@H]1C (some centres not stated)
SN12K1
  GI50: 1.06 µM (active)
P388/ADR
  GI50: 0.57 µM (active)
P388
  GI50: 0.147 µM (active)

## CCCCN(CCCC)CP(=O)(c1ccccc1)c1ccccc1
[4]
  EC50: 11.4 µM (active)

## C/C(N)=C(/C#N)C(=O)COC(=O)c1cc(-c2cccc(Br)c2)nc2ccccc12
[6]
  CC50: 12.2 µM (active)

## Cc1ccc(S(=O)(=O)c2nc(NCCN(C)C)sc2Cl)cc1
Aminopeptidase N
  IC50: 12.7 µM (active)

## CC1CCCCC1NC(=O)CCCCCn1c(=S)[nH]c2ccsc2c1=O (configuration not stated)
[1]
  IC50: > 20 µM (inactive)
[2]
  EC50: > 53 µM (inactive)
[3]
  IC50: < 0.368 µM (active)

## O=C1NC(=O)C(=Cc2ccc(-c3ccccc3[N+](=O)[O-])o2)C(=O)N1
Genome polyprotein
  IC50: 17.8 µM (active)
[7]
  IC50: > 80 µM (inactive)
Large T antigen
  IC50: 62.2 µM (active)

## CSc1cccc(NC(=O)CN(c2ccc(C)cc2C)S(C)(=O)=O)c1
[4]
  EC50: 4.13 µM (active)

## O=C(CCn1nc(-c2ccccc2)c2ccccc2c1=O)N1CCN(c2ccccc2)CC1
[4]
  EC50: 7.63 µM (active)
H9c2
  IC50: > 79 µM (inactive)

## CC(C)Cc1csc(NC(=O)c2ccc(Cl)cc2)c1C(=O)O
[1]
  IC50: 17.8 µM (active)
[2]
  EC50: 25.8 µM (active)
[3]
  IC50: 5.06 µM (active)

## NC(Cc1ccc([N+](=O)[O-])cc1)=NOC(=O)c1ccc(Br)cc1
[1]
  IC50: 9.44 µM (active)

## Nc1ccc2c(c1)C1=NNC(=O)CC1C2 (configuration not stated)
SN12K1
  GI50: > 100 µM (inactive)
P388/ADR
  GI50: > 100 µM (inactive)
P388
  GI50: > 100 µM (inactive)

## Cn1c(=S)[nH]c2sc3c(c2c1=O)CCC(C(C)(C)C)C3 (configuration not stated)
[8]
  CC50: 10.7 µM (active)

## O=C(c1ccc(-c2ccccc2Cl)s1)N1CCOCC1
[6]
  CC50: > 50 µM (active)

## O=C(Nc1cccc2ccccc12)N1CCCN(c2c(Cl)cncc2Cl)CC1
[8]
  CC50: > 40 µM (active)

## N#Cc1c(NC(=O)CSc2nc(-c3ccco3)cc(C(F)(F)F)n2)sc2c1CCCC2
[8]
  CC50: > 40 µM (active)

## CC(/C=C(\NC(=O)c1ccccc1)C(=O)N=Nc1c(O)[nH]c2ccc(C)cc12)=C\c1ccccc1
[8]
  CC50: 33.7 µM (active)
[5]
  EC50: 16.1 µM (active)

## O=C(CSc1nc2ccsc2c(=O)n1NC(=O)c1ccccc1)NCc1ccco1
Aminopeptidase N
  IC50: 72.1 µM (active)

## CCCCOC1CC(c2ccc(OCc3ccc(OC)cc3)c(OC)c2)N(C)O1 (configuration not stated)
[1]
  IC50: > 20 µM (inactive)
[2]
  EC50: > 53 µM (inactive)
[3]
  IC50: 15.4 µM (active)

## Cc1nc2ccccc2c(=O)n1CC(=O)O
SN12K1
  GI50: > 100 µM (inactive)
P388/ADR
  GI50: > 100 µM (inactive)
P388
  GI50: > 100 µM (inactive)

## Cc1nn(-c2cc(C(F)(F)F)ccc2Cl)c2nc(C(Cl)(Cl)Cl)nc(O)c12
[1]
  IC50: 11.1 µM (active)
[2]
  EC50: > 53 µM (inactive)
[3]
  IC50: 5.2 µM (active)

## NS(=O)(=O)c1ccc(N2N=C(c3ccccc3)CC2c2cccc(F)c2)cc1 (configuration not stated)
Aminopeptidase N
  IC50: 47.6 µM (active)
